Test results taken from ChEMBL document CHEMBL1201862, “PubChem BioAssay data set” (2004).
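The compound was tested at five concentrations on cells cultured in 96-well plates, with a 48-hour exposure period. GI50 marks 50% less growth.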 Active and inactive are the calls of the source. Rule as the data show it: active = GI50 up to about 1.1 µM and inactive = higher.

Key:
Assay in all cases: DTP human tumour cell line panel, 48 h
DMS-273 = system: DMS-273
HT-29 = system: HT-29
RXF 393 = system: RXF 393
SK-MEL-5 = system: SK-MEL-5
DLD-1 = system: DLD-1
DMS-114 = system: DMS-114
SNB-78 = system: SNB-78
XF498 = system: XF498
HOP-18 = system: HOP-18
OVCAR-3 = system: OVCAR-3
SN12C = system: SN12C
A498 = system: A498
A549 = system: A549
NCI-H23 = system: NCI-H23
KM-20L2 = system: KM-20L2
MDA-MB-435 = system: MDA-MB-435
Hs-578T = system: Hs-578T
M14 = system: M14
DU-145 = system: DU-145
MDA-MB-231 = system: MDA-MB-231

SMILES	GI50 (DMS-273)	GI50 (HT-29)	GI50 (RXF 393)	GI50 (SK-MEL-5)	GI50 (DLD-1)	GI50 (DMS-114)	GI50 (SNB-78)	GI50 (XF498)	GI50 (HOP-18)	GI50 (OVCAR-3)	GI50 (SN12C)	GI50 (A498)	GI50 (A549)	GI50 (NCI-H23)	GI50 (KM-20L2)	GI50 (MDA-MB-435)	GI50 (Hs-578T)	GI50 (M14)	GI50 (DU-145)	GI50 (MDA-MB-231)
Nc1c(S(=O)(=O)O)cc2cc(S(=O)(=O)O)ccc2c1/N=N/c1ccc(-c2ccc(/N=N/c3c(N)c(S(=O)(=O)O)cc4cc(S(=O)(=O)O)ccc34)c(S(=O)(=O)O)c2)cc1	> 100 µM (inactive)	> 100 µM (inactive)	> 100 µM (inactive)	> 100 µM (inactive)	> 100 µM (inactive)	> 100 µM (inactive)	97.7 µM (inactive)	> 64.6 µM (inactive)	> 100 µM (inactive)	71.3 µM (inactive)	> 100 µM (inactive)	> 100 µM (inactive)	> 83.4 µM (inactive)	> 100 µM (inactive)	66.4 µM (inactive)					
CC(C)N1CSC(=S)N(Cc2ccccc2)C1		2.43 µM (inactive)	2.37 µM (inactive)	4.66 µM (inactive)						3.87 µM (inactive)	4.49 µM (inactive)	> 10 µM (inactive)	> 10 µM (inactive)	3.1 µM (inactive)		3.84 µM (inactive)	> 10 µM (inactive)			
COc1cccc2[s+]snc12	53.2 µM (inactive)	96.8 µM (inactive)	67 µM (inactive)	24.3 µM (inactive)	35.6 µM (inactive)		38.7 µM (inactive)	18.8 µM (inactive)	41.3 µM (inactive)	> 100 µM (inactive)	35.5 µM (inactive)	95.7 µM (inactive)	77.6 µM (inactive)	57.7 µM (inactive)	> 100 µM (inactive)			> 100 µM (inactive)		
Cn1c(-c2cccs2)cc(-c2cccs2)c1-c1ccco1		> 67.6 µM (inactive)	27.9 µM (inactive)	23.8 µM (inactive)						19.2 µM (inactive)	> 94.6 µM (inactive)	27.7 µM (inactive)	50.8 µM (inactive)	3.02 µM (inactive)		7.16 µM (inactive)	26.5 µM (inactive)	26.4 µM (inactive)	> 100 µM (inactive)	51.4 µM (inactive)
CC1(C)C(N2CCOCC2)CS1(=O)=O (stereo not given)		> 10 µM (inactive)	> 10 µM (inactive)	> 10 µM (inactive)						> 10 µM (inactive)	> 10 µM (inactive)	> 10 µM (inactive)	> 10 µM (inactive)	> 10 µM (inactive)		> 10 µM (inactive)	> 10 µM (inactive)	> 10 µM (inactive)	> 10 µM (inactive)	> 10 µM (inactive)
CC1=C(C(=O)Nc2cccc(Cl)c2)C(c2ccccc2O)C(C(=O)Nc2cccc(Cl)c2)=C(C)N1		18.8 µM (inactive)	17.2 µM (inactive)	17.4 µM (inactive)	18.4 µM (inactive)	22.4 µM (inactive)	24.5 µM (inactive)			20.6 µM (inactive)	21.8 µM (inactive)	19.5 µM (inactive)	20.2 µM (inactive)	17.3 µM (inactive)	18.4 µM (inactive)			17.4 µM (inactive)		
CCOC(=O)C1=C(C)N(NC(N)=O)C2(O)CCCC(=O)C12C (stereo not given)	> 100 µM (inactive)	> 100 µM (inactive)	> 100 µM (inactive)	> 100 µM (inactive)	94.4 µM (inactive)	> 100 µM (inactive)	> 100 µM (inactive)	> 100 µM (inactive)	> 100 µM (inactive)	> 100 µM (inactive)	> 100 µM (inactive)	> 100 µM (inactive)	> 100 µM (inactive)	> 100 µM (inactive)	> 100 µM (inactive)			> 100 µM (inactive)		
c1ccc(C(c2ccccc2)[P+](c2ccccc2)(c2ccccc2)c2ccccc2)cc1	0.349 µM (active)	0.332 µM (active)	2.24 µM (inactive)	0.37 µM (active)	2.1 µM (inactive)	0.324 µM (active)	0.612 µM (active)	0.214 µM (active)	0.369 µM (active)	0.336 µM (active)	0.592 µM (active)	2.32 µM (inactive)	0.422 µM (active)	0.45 µM (active)	0.374 µM (active)					
COc1ccc(NC(=O)C(=O)C(C(=O)c2ccccc2)C2OC(=O)c3ccccc32)c([N+](=O)[O-])c1 (stereo not given)	> 100 µM (inactive)	> 100 µM (inactive)	> 100 µM (inactive)	> 100 µM (inactive)	> 100 µM (inactive)	> 100 µM (inactive)	> 100 µM (inactive)	> 100 µM (inactive)	> 100 µM (inactive)		> 100 µM (inactive)	> 100 µM (inactive)	> 100 µM (inactive)	> 100 µM (inactive)	> 100 µM (inactive)			> 100 µM (inactive)		
